PubChem BioAssay AID330 (DTP/NCI, 2004)
Where “and” joins values, the source holds several entries; their conditions need not be identical. Identical values can stand only once. Inconclusive results and toxic doses are left out.

Test system: P388 leukemia ip, CD2F1 mice, survival T/C
Experiment: NCI In Vivo Anticancer Drug Screen. Data for tumor model P388 Leukemia (intraperitoneal) in CD2F1 (CDF1) mice
Conditions: endpoint: median survival time, higher = longer survival
Method in brief: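 Mice carrying the transplanted tumor received test compound or vehicle. Survival was recorded in each group, and the value is the treated-group measurement divided by that of the vehicle-treated control group.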

[1] = dose: 50.0 mg/kg/injection, schedule: Q01DX009 (ip), vehicle: saline with Tween-80
[2] = dose: 100.0 mg/kg/injection, schedule: Q01DX009 (ip), vehicle: saline with Tween-80
[3] = dose: 200.0 mg/kg/injection, schedule: Q01DX009 (ip), vehicle: saline with Tween-80
[4] = dose: 50.0 mg/kg/injection, schedule: Q01DX005 (ip), vehicle: Klucel (hydroxypropylcellulose) (HPC)
[5] = dose: 100.0 mg/kg/injection, schedule: Q01DX005 (ip), vehicle: Klucel (hydroxypropylcellulose) (HPC)
[6] = dose: 200.0 mg/kg/injection, schedule: Q01DX005 (ip), vehicle: Klucel (hydroxypropylcellulose) (HPC)
[7] = dose: 50.0 mg/kg/injection, schedule: Q01DX009 (ip), vehicle: Klucel (hydroxypropylcellulose) (HPC)
[8] = dose: 200.0 mg/kg/injection, schedule: Q01DX009 (ip), vehicle: Klucel (hydroxypropylcellulose) (HPC)

With `COc1ccc(CCNC2=C(/C=C\C(=O)O)C(=O)CC2)cc1OC` the T/C (dose: 25.0 mg/kg/injection, schedule: Q01DX001 (ip), vehicle: Klucel (hydroxypropylcellulose) (HPC)) was 95 % of control, the T/C (dose: 50.0 mg/kg/injection, schedule: Q01DX001 (ip), vehicle: Klucel (hydroxypropylcellulose) (HPC)) was 100 % of control and the T/C (dose: 100.0 mg/kg/injection, schedule: Q01DX001 (ip), vehicle: Klucel (hydroxypropylcellulose) (HPC)) was 87 % of control and 92 % of control.

`CC1=C(C)CC2(CC1)C(=O)C1(CCC(C)=C(C)C1)C2=O` (stereo not given) was tested, and the T/C [1] was 93 % of control, the T/C [2] was 90 % of control and the T/C [3] was 99 % of control.

`CC1CCCC2=C1C(O)c1cccc(N)c1C2O` (stereo not given) was tested, and the T/C [4] was 102 % of control, the T/C [5] was 96 % of control and the T/C [6] was 88 % of control.

For `COc1cc(-c2[o+]c3cc(O)cc(O)c3cc2OC2OC(CO)C(O)C(O)C2O)cc(OC)c1O` (stereo not given), the T/C (dose: 25.0 mg/kg/injection, schedule: Q01DX009 (ip), vehicle: saline sonified) was 100 % of control, the T/C (dose: 50.0 mg/kg/injection, schedule: Q01DX009 (ip), vehicle: saline sonified) was 100 % of control and the T/C (dose: 100.0 mg/kg/injection, schedule: Q01DX009 (ip), vehicle: saline sonified) was 100 % of control.

With `c1ccc2cc(N3CCOCC3)ccc2c1` the T/C [2] was 116 % of control, the T/C [3] was 119 % of control and the T/C (dose: 400.0 mg/kg/injection, schedule: Q01DX009 (ip), vehicle: saline with Tween-80) was 116 % of control.

For `CC(O)CN1C(=O)c2cccc3cc([N+](=O)[O-])cc(c23)C1=O` (stereo not given), the T/C (dose: 50.0 mg/kg/injection, schedule: Q01DX005 (ip), vehicle: saline with Tween-80) was 96 % of control, the T/C (dose: 100.0 mg/kg/injection, schedule: Q01DX005 (ip), vehicle: saline with Tween-80) was 104 % of control and the T/C (dose: 200.0 mg/kg/injection, schedule: Q01DX005 (ip), vehicle: saline with Tween-80) was 104 % of control.

In the case of `CCn1c2ccc(C=O)cc2c2cc([N+](=O)[O-])ccc21`, the T/C [4] is reported as 92 % of control, the T/C [5] is reported as 86 % of control and the T/C [6] is reported as 86 % of control.

`CC1(C)COC2(c3ccccc3)N(c3ccccc3)C(=O)ON12` (stereo not given) was tested, and the T/C (dose: 60.0 mg/kg/injection, schedule: Q01DX001 (ip), vehicle: Klucel (hydroxypropylcellulose) (HPC)) was 100 % of control, the T/C (dose: 120.0 mg/kg/injection, schedule: Q01DX001 (ip), vehicle: Klucel (hydroxypropylcellulose) (HPC)) was 100 % of control and the T/C (dose: 240.0 mg/kg/injection, schedule: Q01DX001 (ip), vehicle: Klucel (hydroxypropylcellulose) (HPC)) was 103 % of control.

In the case of `CCOC(=O)NNCC(=O)OCc1ccccc1`, the T/C (dose: 25.0 mg/kg/injection, schedule: Q01DX009 (ip), vehicle: other) is reported as 90 % of control, the T/C (dose: 50.0 mg/kg/injection, schedule: Q01DX009 (ip), vehicle: other) is reported as 93 % of control and the T/C (dose: 100.0 mg/kg/injection, schedule: Q01DX009 (ip), vehicle: other) is reported as 100 % of control. The T/C (dose: 200.0 mg/kg/injection, schedule: Q01DX009 (ip), vehicle: other) was 109 % of control.

With `C[CH2][Sn]([CH2]C)([S]CCS(=O)(=O)O)[S]CCS(=O)(=O)O` (tested in a mixture with another compound) the T/C (dose: 7.5 mg/kg/injection, schedule: Q01DX005 (ip), vehicle: saline) was 123 % of control.

With `COc1ccc2nc3cc(Cl)ccc3c(NCCCC3CCCN4CCCCC34)c2c1` (stereo not given) the T/C (dose: 7.5 mg/kg/injection, schedule: Q01DX005 (ip), vehicle: saline with Tween-80) was 108 % of control, the T/C (dose: 15.0 mg/kg/injection, schedule: Q01DX005 (ip), vehicle: saline with Tween-80) was 108 % of control and the T/C (dose: 30.0 mg/kg/injection, schedule: Q01DX005 (ip), vehicle: saline with Tween-80) was 111 % of control.

With `CN(c1ccccc1)c1nnnn1-c1ccccc1` the T/C (dose: 50.0 mg/kg/injection, schedule: Q04DX003 (ip), vehicle: saline with Tween-80) was 95 % of control, the T/C (dose: 100.0 mg/kg/injection, schedule: Q04DX003 (ip), vehicle: saline with Tween-80) was 104 % of control and the T/C (dose: 200.0 mg/kg/injection, schedule: Q04DX003 (ip), vehicle: saline with Tween-80) was 111 % of control.

For `C1CCNCC1.COc1ccccc1C(=O)[CH-]C(=O)C(F)(F)F.COc1ccccc1C(=O)[CH-]C(=O)C(F)(F)F.COc1ccccc1C(=O)[CH-]C(=O)C(F)(F)F.COc1ccccc1C(=O)[CH-]C(=O)C(F)(F)F.[Eu+3]`, the T/C [7] was 94 % of control and the T/C [8] was 91 % of control.

For `N=C(N)N1CCNc2ccc(Cl)cc2C1`, the T/C (dose: 100.0 mg/kg/injection, schedule: Q04DX002 (ip), vehicle: saline with Tween-80) was 96 % of control and the T/C (dose: 200.0 mg/kg/injection, schedule: Q04DX002 (ip), vehicle: saline with Tween-80) was 91 % of control.

`COCC(Cl)/C(N)=N\S(=O)(=O)c1c(C)cc(Cl)cc1Cl` (stereo not given) was tested, and the T/C (dose: 60.0 mg/kg/injection, schedule: Q01DX005 (ip), vehicle: saline with Tween-80) was 101 % of control, the T/C (dose: 120.0 mg/kg/injection, schedule: Q01DX005 (ip), vehicle: saline with Tween-80) was 100 % of control and the T/C (dose: 240.0 mg/kg/injection, schedule: Q01DX005 (ip), vehicle: saline with Tween-80) was 96 % of control.

With `CC(=Nc1ccc(C)cc1N)c1c(O)cc(C)oc1=O` the T/C (dose: 60.0 mg/kg/injection, schedule: Q01DX005 (ip), vehicle: Klucel (hydroxypropylcellulose) (HPC)) was 95 % of control, the T/C (dose: 120.0 mg/kg/injection, schedule: Q01DX005 (ip), vehicle: Klucel (hydroxypropylcellulose) (HPC)) was 96 % of control and the T/C (dose: 240.0 mg/kg/injection, schedule: Q01DX005 (ip), vehicle: Klucel (hydroxypropylcellulose) (HPC)) was 101 % of control.

With `COc1cc(OC)c(/C=C/c2c3ccccc3cc[n+]2C)c(OC)c1` the T/C (dose: 0.39 mg/kg/injection, schedule: Q01DX009 (ip), vehicle: saline with Tween-80) was 108 % of control, the T/C (dose: 0.78 mg/kg/injection, schedule: Q01DX009 (ip), vehicle: saline with Tween-80) was 121 % of control and the T/C (dose: 3.13 mg/kg/injection, schedule: Q01DX009 (ip), vehicle: saline with Tween-80) was 152 % of control.

`Cc1c[nH]c2nc(C)n(-c3ccc(Cl)cc3)c(=N)c12` was tested, and the T/C (dose: 12.5 mg/kg/injection, schedule: Q01DX005 (ip), vehicle: Klucel (hydroxypropylcellulose) (HPC)) was 98 % of control, the T/C (dose: 25.0 mg/kg/injection, schedule: Q01DX005 (ip), vehicle: Klucel (hydroxypropylcellulose) (HPC)) was 104 % of control and the T/C [4] was 103 % of control.

With `COC(=O)Cn1/c(=N\N=C(/C)c2ccccc2)sc2ccccc21` the T/C (dose: 100.0 mg/kg/injection, schedule: Q01DX001 (ip), vehicle: saline with Tween-80) was 102 % of control, the T/C (dose: 200.0 mg/kg/injection, schedule: Q01DX001 (ip), vehicle: saline with Tween-80) was 99 % of control and the T/C (dose: 400.0 mg/kg/injection, schedule: Q01DX001 (ip), vehicle: saline with Tween-80) was 99 % of control.

`CCOC(=O)CCCCCCNC(=S)N1c2c(nc(N)[nH]c2=O)NCC1CNc1ccc(C(=O)NC(CCC(=O)O)C(=O)O)cc1` (stereo not given) was tested, and the T/C (dose: 50.0 mg/kg/injection, schedule: Q01DX001 (ip), vehicle: sodium bicarbonate) was 100 % of control, the T/C (dose: 100.0 mg/kg/injection, schedule: Q01DX001 (ip), vehicle: sodium bicarbonate) was 100 % of control and the T/C (dose: 200.0 mg/kg/injection, schedule: Q01DX001 (ip), vehicle: sodium bicarbonate) was 98 % of control.

With `CCOc1c(N=Nc2ccc(OC)cc2)c(C)nn1C(N)=S` the T/C (dose: 15.0 mg/kg/injection, schedule: Q01DX005 (ip), vehicle: Klucel + Tween-80) was 101 % of control, the T/C (dose: 30.0 mg/kg/injection, schedule: Q01DX005 (ip), vehicle: Klucel + Tween-80) was 100 % of control and the T/C (dose: 60.0 mg/kg/injection, schedule: Q01DX005 (ip), vehicle: Klucel + Tween-80) was 98 % of control and 123 % of control. The T/C (dose: 120.0 mg/kg/injection, schedule: Q01DX005 (ip), vehicle: Klucel + Tween-80) was 110 % of control and 91 % of control and the T/C (dose: 240.0 mg/kg/injection, schedule: Q01DX005 (ip), vehicle: Klucel + Tween-80) was 100 % of control.

In the case of `CCCNC1(N(C)C)N=C(N(C)C)N=C(N(C)C)O1` (stereo not given), the T/C (dose: 50.0 mg/kg/injection, schedule: Q01DX005 (ip), vehicle: saline) is reported as 102 % of control and the T/C (dose: 100.0 mg/kg/injection, schedule: Q01DX005 (ip), vehicle: saline) is reported as 95 % of control.

In the case of `N#CS.N=C=S.O=N[O-].[Co+3].[NH2-].[NH2-].[NH2-].[NH2-]`, the T/C (dose: 25.0 mg/kg/injection, schedule: Q01DX009 (ip), vehicle: saline with Tween-80) is reported as 102 % of control, the T/C [1] is reported as 89 % of control and the T/C [2] is reported as 108 % of control.

For `COc1cc2c(cc1OC)C(c1ccc(S(=O)(=O)C(C)C)cc1)NCC2` (stereo not given), the T/C [7] was 89 % of control, the T/C (dose: 100.0 mg/kg/injection, schedule: Q01DX009 (ip), vehicle: Klucel (hydroxypropylcellulose) (HPC)) was 101 % of control and the T/C [8] was 108 % of control.

In the case of `CCN(CC)CCOC(=O)c1c(C)cc(C)cc1C`, the T/C (dose: 25.0 mg/kg/injection, schedule: Q04DX003 (ip), vehicle: saline) is reported as 100 % of control, the T/C (dose: 50.0 mg/kg/injection, schedule: Q04DX003 (ip), vehicle: saline) is reported as 106 % of control and the T/C (dose: 100.0 mg/kg/injection, schedule: Q04DX003 (ip), vehicle: saline) is reported as 93 % of control.

For `Cc1c[nH]c2nc(C)n(-c3ccccc3F)c(=N)c12`, the T/C [4] was 99 % of control and the T/C [5] was 91 % of control.
